Results reported in ChEMBL document CHEMBL5634113, “Synthesis, cytotoxic activity evaluation and mechanistic investigation of novel 3,7-diarylsubstituted 6-azaindoles” (Eur J Med Chem, 2023).
Counter-ions that a name gives are not always drawn. Calls of active or inactive are those of the source. No cut-off for these calls is given here.

Columns and labels:
[1] = Cytotoxicity against human AG1523 cells assessed as inhibition of cell growth incubated for 72 hrs by MTT assay; type: toxicity, cell-based
[2] = system: MCF7; experiment: Cytotoxicity against human MCF7 cells assessed as inhibition of cell growth incubated for 72 hrs by MTT assay; type: functional, cell-based; conditions: MCF7, 72 h
[3] = system: A-431; experiment: Cytotoxicity against human A-431 cells assessed as inhibition of cell growth incubated for 72 hrs by MTT assay; type: functional, cell-based; conditions: A-431, 72 h
[4] = system: MDA-MB-231; experiment: Cytotoxicity against human MDA-MB-231 cells assessed as inhibition of cell growth incubated for 72 hrs by MTT assay; type: functional, cell-based; conditions: MDA-MB-231, 72 h
[5] = system: HT-1080; experiment: Cytotoxicity against human HT-1080 cells assessed as inhibition of cell growth incubated for 72 hrs by MTT assay; type: functional, cell-based; conditions: HT-1080, 72 h
[6] = system: A-431; experiment: Induction of cell cycle arrest in human A-431 cells assessed as accumulation of cells at Sub-diploid phase at 100 nM incubated for 24 hrs by RNase/PI staining based flow cytometry analysis (reference value: 1.82%); type: functional
[7] = system: A-431; experiment: Induction of cell cycle arrest in human A-431 cells assessed as accumulation of cells at G0/G1 phase at 100 nM incubated for 24 hrs by RNase/PI staining based flow cytometry analysis (reference value: 40.98%); type: functional
[8] = system: A-431; experiment: Induction of cell cycle arrest in human A-431 cells assessed as accumulation of cells at S phase at 100 nM incubated for 24 hrs by RNase/PI staining based flow cytometry analysis (reference value: 43.35%); type: functional
[9] = system: A-431; experiment: Induction of cell cycle arrest in human A-431 cells assessed as accumulation of cells at G2/M phase at 100 nM incubated for 24 hrs by RNase/PI staining based flow cytometry analysis (reference value: 15.66%); type: functional
[10] = system: A-431; experiment: Genotoxicity in human A-431 cells assessed as upregulation of p21 total protein level at IC50 measured after 0 to 24 hrs by multiplex immunoassay; type: functional, cell-based; conditions: time 0-24 hrs
[11] = biological target: Ribosomal protein S6 kinase alpha-1 (Homo sapiens) (UniProt Q15418); experiment: Inhibition of p90 RSK phosphorylation at Ser380 residue in human A-431 cells at IC50 measured after 0 to 24 hrs by multiplex immunoassay; type: cell-based; conditions: time 0-24 hrs
Chain of Ribosomal protein S6 kinase alpha-1 (Homo sapiens) (Q15418 whole entry): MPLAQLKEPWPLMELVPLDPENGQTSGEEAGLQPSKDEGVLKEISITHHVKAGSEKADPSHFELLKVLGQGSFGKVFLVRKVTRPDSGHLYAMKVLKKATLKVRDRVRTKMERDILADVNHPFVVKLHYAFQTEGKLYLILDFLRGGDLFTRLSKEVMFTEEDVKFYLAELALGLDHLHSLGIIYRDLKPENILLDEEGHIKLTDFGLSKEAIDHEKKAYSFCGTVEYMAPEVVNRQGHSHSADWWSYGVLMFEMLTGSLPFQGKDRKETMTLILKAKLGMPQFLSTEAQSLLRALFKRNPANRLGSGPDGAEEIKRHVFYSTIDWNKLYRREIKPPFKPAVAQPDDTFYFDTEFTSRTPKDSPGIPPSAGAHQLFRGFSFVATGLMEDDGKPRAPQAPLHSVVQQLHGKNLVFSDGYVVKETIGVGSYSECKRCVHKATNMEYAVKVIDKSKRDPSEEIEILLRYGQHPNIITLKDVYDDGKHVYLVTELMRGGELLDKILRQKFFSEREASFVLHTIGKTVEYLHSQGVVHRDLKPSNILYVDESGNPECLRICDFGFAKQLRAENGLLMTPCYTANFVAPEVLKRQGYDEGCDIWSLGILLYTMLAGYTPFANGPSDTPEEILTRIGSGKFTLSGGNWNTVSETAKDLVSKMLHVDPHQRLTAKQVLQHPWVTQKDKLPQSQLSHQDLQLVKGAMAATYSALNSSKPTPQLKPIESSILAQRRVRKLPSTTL

[12] = biological target: Cyclin-dependent kinase inhibitor 1 (Homo sapiens) (UniProt P38936); experiment: Activation of p21 waf1 in human A-431 cells assessed as increase in p21 waf1 protein level at IC50 measured after 0 to 24 hrs by Western blot analysis; type: cell-based; conditions: filed as activator, time 0-24 hrs
Chain of Cyclin-dependent kinase inhibitor 1 (Homo sapiens) (P38936 whole entry): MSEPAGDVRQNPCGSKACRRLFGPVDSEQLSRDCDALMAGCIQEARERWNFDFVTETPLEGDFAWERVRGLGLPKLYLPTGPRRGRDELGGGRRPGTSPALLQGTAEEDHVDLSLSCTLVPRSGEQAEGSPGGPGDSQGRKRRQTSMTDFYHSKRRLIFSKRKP

[13] = biological target: Signal transducer and activator of transcription 3 (Homo sapiens) (UniProt P40763); experiment: Inhibition of STAT3 phosphorylation at Ser727 residue in human A-431 cells at IC50 measured after 0 to 24 hrs by multiplex immunoassay; type: cell-based; conditions: time 0-24 hrs
Chain of Signal transducer and activator of transcription 3 (Homo sapiens) (P40763 whole entry): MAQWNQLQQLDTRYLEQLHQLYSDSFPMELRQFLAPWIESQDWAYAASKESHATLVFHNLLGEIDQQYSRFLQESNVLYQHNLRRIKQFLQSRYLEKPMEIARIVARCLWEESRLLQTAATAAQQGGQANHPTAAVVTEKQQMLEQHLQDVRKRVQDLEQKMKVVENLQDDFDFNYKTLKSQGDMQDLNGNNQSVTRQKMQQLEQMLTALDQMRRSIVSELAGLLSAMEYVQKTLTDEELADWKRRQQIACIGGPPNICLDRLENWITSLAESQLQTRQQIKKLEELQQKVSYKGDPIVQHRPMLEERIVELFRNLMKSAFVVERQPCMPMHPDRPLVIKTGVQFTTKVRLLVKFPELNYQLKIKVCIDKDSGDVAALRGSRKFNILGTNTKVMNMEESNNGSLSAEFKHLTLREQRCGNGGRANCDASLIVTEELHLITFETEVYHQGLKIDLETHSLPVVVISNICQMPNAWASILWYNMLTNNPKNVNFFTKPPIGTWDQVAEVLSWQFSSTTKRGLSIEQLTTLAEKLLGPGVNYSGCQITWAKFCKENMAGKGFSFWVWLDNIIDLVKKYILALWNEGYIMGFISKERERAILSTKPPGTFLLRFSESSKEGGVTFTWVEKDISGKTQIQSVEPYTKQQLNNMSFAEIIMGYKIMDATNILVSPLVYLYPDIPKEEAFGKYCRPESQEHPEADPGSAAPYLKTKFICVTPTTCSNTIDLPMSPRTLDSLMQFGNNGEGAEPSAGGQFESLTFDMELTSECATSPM

[14] = biological target: Mitogen-activated protein kinase 1 (Homo sapiens) (UniProt P28482); experiment: Inhibition of ERK2 phosphorylation at Thr185/Tyr187 residues in human A-431 cells at IC50 measured after 0 to 24 hrs by multiplex immunoassay; type: cell-based; conditions: time 0-24 hrs
Chain of Mitogen-activated protein kinase 1 (Homo sapiens) (P28482 whole entry): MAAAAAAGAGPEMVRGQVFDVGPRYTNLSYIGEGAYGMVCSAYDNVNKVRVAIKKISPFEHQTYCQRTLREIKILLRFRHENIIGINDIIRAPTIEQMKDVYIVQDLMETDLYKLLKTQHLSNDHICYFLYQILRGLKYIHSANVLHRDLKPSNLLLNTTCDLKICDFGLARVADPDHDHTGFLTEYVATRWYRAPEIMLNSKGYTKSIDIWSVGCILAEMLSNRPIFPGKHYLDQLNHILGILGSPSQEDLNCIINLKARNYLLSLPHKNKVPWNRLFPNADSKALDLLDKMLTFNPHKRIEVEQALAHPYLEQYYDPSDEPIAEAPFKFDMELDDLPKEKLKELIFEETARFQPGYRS

[15] = biological target: Dual specificity mitogen-activated protein kinase kinase 1 (Homo sapiens) (UniProt Q02750); experiment: Inhibition of MEK1 phosphorylation at Ser217/Ser221 residues in human A-431 cells at IC50 measured after 0 to 24 hrs by multiplex immunoassay; type: cell-based; conditions: time 0-24 hrs
Chain of Dual specificity mitogen-activated protein kinase kinase 1 (Homo sapiens) (Q02750 whole entry): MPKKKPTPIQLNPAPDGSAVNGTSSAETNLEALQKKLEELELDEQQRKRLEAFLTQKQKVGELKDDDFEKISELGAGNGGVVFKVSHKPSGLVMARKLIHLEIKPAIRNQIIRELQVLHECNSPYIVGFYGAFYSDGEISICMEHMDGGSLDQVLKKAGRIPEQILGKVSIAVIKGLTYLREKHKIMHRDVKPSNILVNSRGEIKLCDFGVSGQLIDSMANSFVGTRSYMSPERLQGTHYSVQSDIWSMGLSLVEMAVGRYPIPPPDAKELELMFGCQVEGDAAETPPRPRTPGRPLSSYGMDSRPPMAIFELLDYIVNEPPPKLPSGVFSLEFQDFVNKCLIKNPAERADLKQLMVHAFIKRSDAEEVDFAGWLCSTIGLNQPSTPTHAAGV

[16] = biological target: Mitogen-activated protein kinase 3 (Homo sapiens) (UniProt P27361); experiment: Inhibition of ERK1 phosphorylation at Thr202/Tyr204 residues in human A-431 cells at IC50 measured after 0 to 24 hrs by multiplex immunoassay; type: cell-based; conditions: time 0-24 hrs
Chain of Mitogen-activated protein kinase 3 (Homo sapiens) (P27361 whole entry): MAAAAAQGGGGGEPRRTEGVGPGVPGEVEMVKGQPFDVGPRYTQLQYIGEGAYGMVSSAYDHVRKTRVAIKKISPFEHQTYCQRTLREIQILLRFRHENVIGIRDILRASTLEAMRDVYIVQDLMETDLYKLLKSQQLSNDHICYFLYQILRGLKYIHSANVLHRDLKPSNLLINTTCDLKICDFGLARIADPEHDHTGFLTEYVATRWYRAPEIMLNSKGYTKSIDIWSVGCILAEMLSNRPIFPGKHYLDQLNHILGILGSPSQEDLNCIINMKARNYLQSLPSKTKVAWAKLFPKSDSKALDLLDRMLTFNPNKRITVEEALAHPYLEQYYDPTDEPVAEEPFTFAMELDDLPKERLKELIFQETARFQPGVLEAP

[17] = system: A-431; experiment: Genotoxicity in human A-431 cells assessed as upregulation of phosphorylated Chk2 at Thr68 residue protein level at IC50 measured after 0 to 24 hrs by multiplex immunoassay; type: functional, cell-based; conditions: time 0-24 hrs
[18] = biological target: Cellular tumor antigen p53 (Homo sapiens) (UniProt P04637); experiment: Activation of p53 in human A-431 cells assessed as increase in p53 phosphorylation at Ser15 residue at IC50 measured after 0 to 24 hrs by Western blot analysis; type: cell-based; conditions: filed as activator, time 0-24 hrs
Chain of Cellular tumor antigen p53 (Homo sapiens) (P04637 whole entry, looked up): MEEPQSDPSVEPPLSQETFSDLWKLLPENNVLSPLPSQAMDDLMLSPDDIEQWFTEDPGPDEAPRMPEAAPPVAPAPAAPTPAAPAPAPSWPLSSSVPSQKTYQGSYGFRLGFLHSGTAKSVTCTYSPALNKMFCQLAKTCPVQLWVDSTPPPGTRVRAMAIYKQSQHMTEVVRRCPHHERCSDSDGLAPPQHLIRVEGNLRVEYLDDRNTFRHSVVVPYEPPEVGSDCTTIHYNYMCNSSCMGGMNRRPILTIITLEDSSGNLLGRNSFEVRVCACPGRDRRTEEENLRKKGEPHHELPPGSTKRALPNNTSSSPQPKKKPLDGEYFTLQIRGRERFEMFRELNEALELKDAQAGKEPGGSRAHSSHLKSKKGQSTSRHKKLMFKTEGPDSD

[19] = system: A-431; experiment: Genotoxicity in human A-431 cells assessed as upregulation of ATR total protein level at IC50 measured after 0 to 24 hrs by multiplex immunoassay; type: functional, cell-based; conditions: time 0-24 hrs
[20] = system: A-431; experiment: Genotoxicity in human A-431 cells assessed as upregulation of phosphorylated Chk1 at Ser345 residue protein level at IC50 measured after 0 to 24 hrs by multiplex immunoassay; type: functional, cell-based; conditions: time 0-24 hrs
[21] = system: A-431; experiment: Cytotoxicity against human A-431 cells assessed as increase in mitotic nuclei measured after 6 to 24 hrs by DAPI staining based analysis; type: functional, cell-based; conditions: time 6-24 hrs
[22] = system: A-431; experiment: Genotoxicity in human A-431 cells assessed as upregulation of MDM2 total protein level at IC50 measured after 0 to 24 hrs by multiplex immunoassay; type: functional, cell-based; conditions: time 0-24 hrs
[23] = system: A-431; experiment: Genotoxicity in human A-431 cells assessed as upregulation of phosphorylated p53 at Ser15 residue protein level at IC50 measured after 0 to 24 hrs by multiplex immunoassay; type: functional, cell-based; conditions: time 0-24 hrs

| Structure (SMILES) | IC50 at 72 h [1] [µM] | IC50 [2] [µM] | IC50 [3] [µM] | IC50 [4] [µM] | IC50 [5] [µM] | also measured |
| --- | --- | --- | --- | --- | --- | --- |
| COc1ccc(Cn2cc(-c3cccc(F)c3)c3ccnc(-c4cccc([N+](=O)[O-])c4)c32)cc1 | > 100 | > 100 | > 100 | > 100 | > 100 | – |
| COc1ccc(Cn2cc(-c3ccccc3)c3ccnc(-c4ccc(C(C)=O)cc4)c32)cc1 | > 100 | 24.5 | > 100 | > 100 | 41.6 | – |
| COc1ccc(Cn2cc(-c3cccc(F)c3)c3ccnc(-c4ccc(Cl)cc4)c32)cc1 | > 100 | 73.3 | 14.3 | > 100 | > 100 | – |
| COc1cccc2c1C(=O)c1c(O)c3c(c(O)c1C2=O)C[C@@](O)(C(=O)CO)C[C@@H]3O[C@H]1C[C@H](N)[C@H](O)[C@H](C)O1 [DOXORUBICIN HYDROCHLORIDE] | – | 0.144 | 0.009 | 0.096 | 0.007 | – |
| CC(=O)c1ccc(-c2nccc3c(-c4cccc(F)c4)c[nH]c23)cc1 | > 100 | 0.81 | 0.42 | 0.42 | 0.47 | – |
| Fc1cccc(-c2c[nH]c3c(-c4ccccc4)nccc23)c1 | > 100 | 2.29 | 1.6 | 3.65 | 3.15 | – |
| CC(=O)c1ccc(-c2nccc3c(-c4ccccc4)c[nH]c23)cc1 | > 100 | 0.64 | 0.1 | 0.27 | 0.52 | Activity [6]: 39.37%; Activity [7]: 14.74%; Activity [8]: 20.32%; Activity [9]: 64.95% |
| COc1ccc(-c2nccc3c(-c4ccccc4)c[nH]c23)c(OC)c1 | 79.8 | 0.1 | 0.012 | 0.017 | 0.012 | Activity [6]: 40.02%; Activity [7]: 26.41%; Activity [8]: 10.27%; Activity [9]: 63.32% |
| c1ccc(-c2c[nH]c3c(-c4ccccc4)nccc23)cc1 | 85.1 | 2.48 | 0.54 | 1.51 | 0.79 | – |
| COc1ccc(Cn2cc(-c3ccccc3)c3ccnc(-c4ccc(Cl)cc4)c32)cc1 | > 100 | 40.8 | 10.8 | > 100 | 25.8 | – |
| O=[N+]([O-])c1cccc(-c2nccc3c(-c4ccccc4)c[nH]c23)c1 | > 100 | 3.34 | 2.6 | 4.39 | 3.06 | – |
| O=[N+]([O-])c1cccc(-c2nccc3c(-c4cccc(F)c4)c[nH]c23)c1 | 49 | 4.39 | 2.5 | 5.12 | 0.82 | – |
| Clc1ccc(-c2nccc3c(-c4ccccc4)c[nH]c23)cc1 | > 100 | 0.35 | 0.02 | 0.051 | 0.056 | Activity [6]: 33.54%; Activity [7]: 20.59%; Activity [8]: 39.69%; Activity [9]: 39.73% |
| Fc1cccc(-c2c[nH]c3c(-c4ccc(Cl)cc4)nccc23)c1 | 78.6 | 0.41 | 0.11 | 0.13 | 0.087 | – |
| COc1ccc(Cn2cc(-c3cccc(F)c3)c3ccnc(-c4ccccc4)c32)cc1 | > 100 | 12.9 | 9 | 49.8 | 14.1 | – |
| COc1ccc(Cn2cc(-c3ccccc3)c3ccnc(-c4cccc([N+](=O)[O-])c4)c32)cc1 | > 100 | > 100 | > 100 | > 100 | > 100 | – |
| COc1ccc(Cn2cc(-c3ccccc3)c3ccnc(-c4ccc(OC)cc4OC)c32)cc1 | > 100 | 10.3 | 6.2 | 15.8 | 7.67 | – |
| COc1ccc(-c2nccc3c(-c4cccc(F)c4)c[nH]c23)c(OC)c1 | 56.3 | 0.14 | 0.013 | 0.018 | 0.014 | Activity [10]: Active; Activity [6]: 29.86%; inhibition [11]: Active; Activity [7]: 33%; Activity [12]: Active; Activity [8]: 12.97%; inhibition [13]: Active; inhibition [14]: Active; inhibition [15]: Active; inhibition [16]: Active; Activity [17]: Active; Activity [18]: Active; Activity [19]: Active; Activity [20]: Active; Activity [21]: Active; Activity [22]: Active; Activity [23]: Active; Activity [9]: 54.04% |
| COc1ccc(Cn2cc(-c3ccccc3)c3ccnc(-c4ccccc4)c32)cc1 | > 100 | 13.4 | 9.89 | 22.5 | 13.1 | – |
| COc1ccc(Cn2cc(-c3cccc(F)c3)c3ccnc(-c4ccc(OC)cc4OC)c32)cc1 | > 100 | 11.4 | 5.32 | 18.1 | 8.61 | – |
| COc1ccc(Cn2cc(-c3cccc(F)c3)c3ccnc(-c4ccc(C(C)=O)cc4)c32)cc1 | > 100 | 9.7 | 13 | 89.2 | 13.4 | – |
